Earlier results in patent publication US20130071408A1, “Methods for Diagnosis and Treatment of Non-Insulin Dependent Diabetes Mellitus” (priority 2010, published 2013).

Molecular target: CD44 and HA (Homo sapiens, UniProt P16070)
Conditions: cell-based assay; read-out: IC50 value, inhibits the binding of CD44 and HA

Sequence of CD44 and HA (P16070 21-742): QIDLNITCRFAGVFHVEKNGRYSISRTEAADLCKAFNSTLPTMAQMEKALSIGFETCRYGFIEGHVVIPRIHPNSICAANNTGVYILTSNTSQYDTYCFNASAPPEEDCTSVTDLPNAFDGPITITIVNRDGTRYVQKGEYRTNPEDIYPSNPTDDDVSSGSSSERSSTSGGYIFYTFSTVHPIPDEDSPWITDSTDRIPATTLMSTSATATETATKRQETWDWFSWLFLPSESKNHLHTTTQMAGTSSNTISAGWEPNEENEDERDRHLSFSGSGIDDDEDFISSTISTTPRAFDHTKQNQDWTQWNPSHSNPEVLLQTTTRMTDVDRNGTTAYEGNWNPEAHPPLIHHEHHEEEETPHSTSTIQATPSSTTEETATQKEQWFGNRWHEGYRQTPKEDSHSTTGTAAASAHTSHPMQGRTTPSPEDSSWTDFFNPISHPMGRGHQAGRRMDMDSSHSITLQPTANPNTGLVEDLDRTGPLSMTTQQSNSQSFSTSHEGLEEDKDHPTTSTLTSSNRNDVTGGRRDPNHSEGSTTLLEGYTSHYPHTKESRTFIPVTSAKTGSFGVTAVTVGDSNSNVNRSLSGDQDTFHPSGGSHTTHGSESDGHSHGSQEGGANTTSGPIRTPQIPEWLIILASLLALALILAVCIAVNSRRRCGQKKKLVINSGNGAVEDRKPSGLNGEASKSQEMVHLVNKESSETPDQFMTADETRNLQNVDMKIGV

CCCCCCC(O)CCCC(CCCCCCCCCCCCCC(O)C(=O)O)OC1OCC(O)C(O)C1OC1OCC(OC(C)=O)C(O)C1OC1OC(COC(C)=O)C(O)C(O)C1O (stereo not shown) [F-19848 A]
IC50: 23.5 µM
